Experimental data taken from US5512687A, “Compounds for inhibiting immune response” (Procept, Inc., priority 1994, dated 1996).
Read-outs that look alike come from different tables or passages of the source.

Experiments:
[1] = test system: Jurkat cell line; test: in vitro toxicity study, cytotoxicity (Jurkat cell); type: cell-based
[2] = test system: human peripheral blood lymphocyte (PBL) proliferation; type: cell-based

Compound	Cytotoxicity (Jurkat cell) IC50 [1]	IC50 [2]	Cytotoxicity (Jurkat cell) IC50 ([1]; values are extrapolated)
Cn1cc[n+]([Ru-3]([n+]2ccn(C)c2)([n+]2ccn(C)c2)([n+]2ccn(C)c2)([n+]2ccn(C)c2)[n+]2ccn(C)c2)c1.F[P-](F)(F)(F)(F)F.F[P-](F)(F)(F)(F)F.F[P-](F)(F)(F)(F)F [Ru(1-MeIm)6 !(PF6)3]	115 µg/mL	0.19 ± 0.16 µg/mL	
Cn1cc[n+]([Ru-4]([n+]2ccn(C)c2)([n+]2ccn(C)c2)([n+]2ccn(C)c2)([n+]2ccn(C)c2)[n+]2ccn(C)c2)c1.[Cl-].[Cl-] [Ru(1-MeIm)6 !Cl2]	2000 µg/mL	0.052 ± 0.03 µg/mL	
Cn1cc[n+]([Ru-3]([n+]2ccn(C)c2)([n+]2ccn(C)c2)([n+]2ccn(C)c2)([n+]2ccn(C)c2)[n+]2ccn(C)c2)c1.[Cl-].[Cl-].[Cl-] [Ru(1-MeIm)6 !Cl3]	> 300 µg/mL	0.12 ± 0.1 µg/mL	
[Cl-].[Cl-].c1c[n+]([Ru-4]([n+]2cc[nH]c2)([n+]2cc[nH]c2)([n+]2cc[nH]c2)([n+]2cc[nH]c2)[n+]2cc[nH]c2)c[nH]1 [Ru(Im)6 !Cl2]	200 µg/mL	0.0067 ± 0.003 µg/mL	
[Cl-].[Cl-].[Cl-].c1c[n+]([Ru-3]([n+]2cc[nH]c2)([n+]2cc[nH]c2)([n+]2cc[nH]c2)([n+]2cc[nH]c2)[n+]2cc[nH]c2)c[nH]1 [Ru(Im)6 !Cl3]		0.005 ± 0.004 µg/mL	530 µg/mL
Ru(4-MeIm)6 !Cl2		0.09 ± 0.07 µg/mL	1040 µg/mL
